Measurements as given in publication PMC5799307, “Creation of a long-acting nanoformulated dolutegravir” (Nature Communications, 2018).
Like-named read-outs stand apart in the source and are kept apart here.

Key:
Assay type in all cases: cell-based
[1] = test system: HIV-1ADA; experiment: IC50 by HIV-1 RT activity in HIV-1ADA-infected MDM; conditions: Human immunodeficiency virus 1, 240 h, HIV-1ADA MOI 0.1, RT activity day 10
Description: (§1) Antiretroviral efficacy was determined by measurements of HIV reverse transcriptase (RT) activity. For IC50 determination, MDM were exposed to various concentrations (0.01–1000 nM) of DTG or MDTG for 1 h followed by challenge with HIV-1ADA[60] at a multiplicity of infection (MOI) of 0.1 infectious particles per cell for 4 h. Following viral challenge, cells were washed and incubated with the same concentration of drug used before infection for an additional 10 days in culture. Culture fluids were collected on day 10 for the measurement of RT activity as previously described[16],[62],[63]. To assess antiretroviral efficacy, MDM were treated with 100 μM DTG, MDTG, NDTG, or NMDTG as described above for 8 h. After treatment, cells were washed with PBS and cultured with fresh media, with half-media exchanges every other day. At 0, 4, 12 h, and 1, 5, 10, 15, 20, 25, or 30 days after treatment, cells were challenged with HIV-1ADA at an MOI of 0.1 infectious particles per cell for 16 h. After viral infection, the cells were cultured an additional 10 days with half-media exchanges every other day. Culture fluids were collected for measurement of RT activity as previously described[16],[62],[63]. Cells were fixed with 4% PFA and expression of HIV-1p24 antigen was determined by immunocytochemistry.

[2] = test system: HIV-1ADA; experiment: Antiretroviral efficacy in MDM challenged with HIV-1ADA after single 8-h treatment (RT activity, p24)
Description: as §1
For immunocytochemistry, cells were washed with PBS and fixed with 4% PFA at room temperature for 15 min, followed by an additional washing with PBS. The cells were treated with a blocking/permeabilizing solution (1% Triton X-100, 10% BSA in PBS) and incubated with mouse monoclonal antibody to HIV-1p24 (1:100) for 16 h at 4 °C. Cells were washed with PBS, and polymer-based HRP-conjugated anti-mouse secondary was added for 30 min at room temperature. Cells were then washed with PBS and developed with DAB. Nuclei were counterstained with Mayer’s hematoxylin, and cells were visualized with a ×20 objective on a Nikon Eclipse E800 microscope (Melville, NY) with Nuance EX multispectral imaging system (PerkinElmer, Hopkinton, MA)[16],[59].

[3] = test system: human monocyte-derived macrophages (MDM); conditions: 100 µM
Description: Human monocytes were obtained by leukapheresis from HIV-1/2 and hepatitis B seronegative donors, and then purified by counter-current centrifugal elutriation. Human monocytes were plated in a 12-well plate at a density of 1.0 × 10^6 cells per well using DMEM supplemented with 10% heat-inactivated pooled human serum, 1% glutamine, 10 µg/mL ciprofloxacin, and 50 µg/mL gentamicin. Cells were maintained at 37 °C in a 5% CO2 incubator. After 7 days of differentiation in the presence of 1000 U/mL recombinant human macrophage colony stimulating factor (MCSF), MDM were treated with 100 μM DTG, MDTG, NDTG, or NMDTG. Native drugs were added in DMSO (0.1% v/v). Uptake of drug was assessed by measurements of intracellular drug concentrations at 2, 4, 8, 12, 16, or 24 h after treatment. […] For both studies, adherent MDM were washed with PBS, then scraped into PBS, and counted at indicated time points using an Invitrogen Countess Automated Cell Counter (Carlsbad, CA). […] DTG and MDTG drug content was determined by UPLC-UV/Vis as described above. Release was assessed by collecting culture media after 4-h of drug treatment on days 1, 3, 5, 7, 10, 12, and 14. […] Supernatants were dried using a ThermoScientific Savant Speed Vacuum (Waltham, MA), extracted drug resuspended in 150 µL HPLC-grade methanol, and drug content was determined by UPLC-UV/Vis. […]

| maximum cellular drug level ([3]; 4 h) | Compound | IC50 [1] | inhibition at 100 µM ([2]; Human immunodeficiency virus 1, single 8-h treatment, read-out: maximal inhibition of HIV-1 RT activity) | time after drug treatment for which efficacy was observed ([2]; single 8-h treatment, 100 µM) | drug retained within MDM ([3]; 24 h) | inhibition at 100 µM ([2]; Human immunodeficiency virus 1, challenge at day 30 after drug loading, read-out: viral inhibition) | beginning of viral breakthrough ([2]; days after single 8-h treatment, 100 µM) |
| --- | --- | --- | --- | --- | --- | --- | --- |
|  | C[C@@H]1CCO[C@H]2Cn3cc(C(=O)NCc4ccc(F)cc4F)c(=O)c(O)c3C(=O)N12 [DTG, dolutegravir] | 56.7 nM | 65% | up to 4 h | < 0.1 µg/10^6 cells |  |  |
| 16.7 µg/10^6 cells | CCCCCCCCCCCCCC(=O)Oc1c2n(cc(C(=O)NCc3ccc(F)cc3F)c1=O)C[C@@H]1OCC[C@@H](C)N1C2=O [MDTG] | 62.5 nM |  |  |  | 83% | 20 days |
